Data: US10196369B2, “Spirocyclic EBI2 modulators” (Sanford Burnham Prebys Medical Discovery Institute, priority 2013, dated 2019)

target: EBI2 (Homo sapiens, UniProt P32249); assay: Cell-based luminescent assay of EBI2 modulation (7a,25-OHC stimulated); conditions: 7a,25-OHC final assay concentration 80 nM, 60 minute incubation
Method: To assess EBI2 modulation, the compounds described herein were assayed in the following cell-based luminescent assay:
1) Plated 600 cells/well in 4 μL of assay media into columns 1-48 of a 1536-well assay plate, using a liquid dispenser.
2) Centrifuged plates at 1000 rpm for 1 minute and covered with lids.
3) Incubated overnight at 37° C., 100% relative humidity, 5% CO2.
1) Centrifuged compound plates containing compounds described herein at 500 rpm for 1 minute.
2) Added compounds into assay plate col 5-48 to final concentration 4-5 uM. Added matching amount of DMSO to positive and negative control wells in columns 1-4.
3) Dispensed 2 uL/well of assay media to columns 1-2 for the positive control wells.
4) Added 2 uL/well of 400 nM 7a,25-OHC (final assay concentration=80 nM) in assay media to columns 3-48 for the negative control and test compound wells.
5) Centrifuged plates at 1000 rpm for 1 minute and re-lid plates.
6) Incubated plates at 37° C., 100% relative humidity, 5% CO2 for 60 minutes.
7) Following 60 minute incubation, delivered 2.5 uL of Detection Reagent solution to each assay plate (Columns 1-48) using a liquid handler.
8) Centrifuged plates at 2000 rpm for 2 minutes and re-lid plates.
9) Incubated plates for 60 minutes at 25 degrees in the dark.
10) Read plates using the Viewlux, Envision or other suitable plate reader using a luminescence detection.
The experimental values were normalized by the difference between values from neutral and stimulator control wells in each plate. Then normalized data was corrected to remove systematic plate patterns due to artifacts such as dispensing tip issues etc.

EBI2, sequence (P32249 whole entry): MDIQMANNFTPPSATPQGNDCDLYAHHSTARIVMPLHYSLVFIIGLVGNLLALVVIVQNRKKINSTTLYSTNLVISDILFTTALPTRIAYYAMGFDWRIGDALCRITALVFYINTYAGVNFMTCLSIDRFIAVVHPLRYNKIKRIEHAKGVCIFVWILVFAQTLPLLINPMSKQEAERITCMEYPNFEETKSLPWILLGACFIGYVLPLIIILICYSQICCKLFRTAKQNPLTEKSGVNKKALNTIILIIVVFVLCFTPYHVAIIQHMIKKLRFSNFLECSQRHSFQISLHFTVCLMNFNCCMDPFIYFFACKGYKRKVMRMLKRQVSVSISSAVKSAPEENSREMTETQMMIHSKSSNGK

| Compound | IC50 [nM] |
| --- | --- |
| COc1ccc(C(=O)N2CC3(CCN(C(=O)C#Cc4ccc(Br)cc4)CC3)C2)cc1 [Compound C74, 3-(4-bromophenyl)-1-{2-[(4-methoxyphenyl)carbonyl]-2,7-diazaspiro[3.5]non-7-yl}prop-2-yn-1-one] | < 100 |
| O=C(C#Cc1ccc(Cl)cc1)N1CC2(CCN(Cc3ccc(Cl)cc3)CC2)C1 [Compound C85, 3-(4-chlorophenyl)-1-{7-[(4-chlorophenyl)methyl]-2,7-diazaspiro[3.5]non-2-yl}prop-2-yn-1-one] | 100 to 500 |
| O=C(C#Cc1ccc(Cl)cc1)N1CCC2(CC1)CN(C(=O)c1ccc(Cl)cc1)C2 [Compound C76, 3-(4-chlorophenyl)-1-{2-[(4-chlorophenyl)carbonyl]-2,7-diazaspiro[3.5]non-7-yl}prop-2-yn-1-one] | < 100 |
| COc1cc(CN2CCC3(CC2)CN(C(=O)c2cc4cc(Br)ccc4[nH]2)C3)cc(OC)c1 [Compound C62, 7-[(3,5-dimethoxyphenyl)methyl]-2,7-diazaspiro[3.5]non-2-yl 5-bromoindol-2-yl ketone] | 100 to 500 |
| O=C(/C=C/c1ccc(Cl)c(Cl)c1)N1CCC2(CC1)CN(C(=O)/C=C/c1ccc(Cl)c(Cl)c1)C2 [Compound C35, (2E)-1-{2-[(2E)-3-(3,4-dichlorophenyl)prop-2-enoyl]-2,7-diazaspiro[3.5]non-7-yl}-3-(3,4-dichlorophenyl)prop-2-en-1-one] | < 100 |
| O=C(C#Cc1ccc(Br)cc1)N1CCC2(CC1)CN(Cc1ccc(Br)cc1)C2 [Compound C72, 3-(4-bromophenyl)-1-{2-[(4-bromophenyl)methyl]-2,7-diazaspiro[3.5]non-7-yl}prop-2-yn-1-one] | < 100 |
| O=C(/C=C/c1ccc(Br)cc1)N1CCC2(CC1)CN(C(=O)/C=C/c1ccc(Br)cc1)C2 [Compound C1, (2E)-1-{7-[(2E)-3-(4-bromophenyl)prop-2-enoyl]-2,7-diazaspiro[3.5]non-2-yl}-3-(4-bromophenyl)prop-2-en-1-one] | < 100 |
| O=C(/C=C/c1ccc(Br)cc1)N1CCC2(CC1)CN(C(=O)c1cc(Cl)cc(Cl)c1)C2 [Compound C10, (2E)-1-{2-[(3,5-dichlorophenyl)carbonyl]-2,7-diazaspiro[3.5]non-7-yl}-3-(4-bromophenyl)prop-2-en-1-one] | < 100 |
| O=C(/C=C/c1ccc(Cl)c(Cl)c1)N1CC2(CCN(C(=O)c3ccc(Cl)cc3)CC2)C1 [Compound C29, (2E)-3-(3,4-dichlorophenyl)-1-{7-[(4-chlorophenyl)carbonyl]-2,7-diazaspiro[3.5]non-2-yl}prop-2-en-1-one] | < 100 |
| O=C(c1ccc(Cl)cc1)N1CCC2(CC1)CN(C(=O)c1cc3cc(Cl)ccc3[nH]1)C2 [Compound C40, 5-chloroindol-2-yl 7-[(4-chlorophenyl)carbonyl]-2,7-diazaspiro[3.5]non-2-yl ketone] | < 100 |
| O=C(/C=C/c1ccc(Br)cc1)N1CCC2(CC1)CN(C(=O)c1ccccc1)C2 [Compound C7, (2E)-3-(4-bromophenyl)-1-[2-(phenylcarbonyl)-2,7-diazaspiro[3.5]non-7-yl]prop-2-en-1-one] | < 100 |
| O=C(c1ccc(F)cc1)N1CCC2(CC1)CN(C(=O)c1cc3cc(Cl)ccc3[nH]1)C2 [Compound C38, 5-chloroindol-2-yl 7-[(4-fluorophenyl)carbonyl]-2,7-diazaspiro[3.5]non-2-yl ketone] | 100 to 500 |
| bromophenyl)-1-{2-[(4-bromophenyl)carbonyl]-2,7-diazaspiro[3.5]non-7-yl}prop-2-yn-1-one [Compound C66] | 100 to 500 |
| O=C(/C=C/c1ccc(Br)cc1)N1CC2(CCN(Cc3ccc(F)c(C(F)(F)F)c3)CC2)C1 [Compound C27, (2E)-3-(4-bromophenyl)-1-(7-{[4-fluoro-3-(trifluoromethyl)phenyl]methyl}-2,7-diazaspiro[3.5]non-2-yl)prop-2-en-1-one] | 100 to 500 |
| O=C(c1ccc(C(F)(F)F)cc1)N1CCC2(CC1)CN(C(=O)c1cc3ccc(Br)cc3[nH]1)C2 [Compound C58, 6-bromoindol-2-yl 7-{[4-(trifluoromethyl)phenyl]carbonyl}-2,7-diazaspiro[3.5]non-2-yl ketone] | 500 to 5000 |
| O=C(C#Cc1ccc2c(c1)OCO2)N1CCC2(CC1)CN(C(=O)c1ccc(Cl)cc1)C2 [Compound C98, 3-(2H-benzo[3,4-d]1,3-dioxolen-5-yl)-1-{2-[(4-chlorophenyl)carbonyl]-2,7-diazaspiro[3.5]non-7-yl}prop-2-yn-1-one] | 100 to 500 |
| O=C(c1cc2cc(Br)ccc2[nH]1)N1CC2(CCN(C(=O)c3ccc(F)cc3C(F)(F)F)CC2)C1 [Compound C48, 5-bromoindol-2-yl 7-{[4-fluoro-2-(trifluoromethyl)phenyl]carbonyl}-2,7-diazaspiro[3.5]non-2-yl ketone] | < 100 |

| Compound | IC50 [nM] |
| --- | --- |
| O=C(/C=C/c1ccc(Cl)c(Cl)c1)N1CC2(CCN(C(=O)c3ccc(F)cc3)CC2)C1 [Compound C28, (2E)-3-(3,4-dichlorophenyl)-1-{7-[(4-fluorophenyl)carbonyl]-2,7-diazaspiro[3.5]non-2-yl}prop-2-en-1-one] | < 100 |
| O=C(/C=C/c1ccc(Br)cc1)N1CC2(CCN(Cc3ccc(F)cc3)CC2)C1 [Compound C25, (2E)-3-(4-bromophenyl)-1-{7-[(4-fluorophenyl)methyl]-2,7-diazaspiro[3.5]non-2-yl}prop-2-en-1-one] | 100 to 500 |
| O=C(c1ccc(Cl)cc1)N1CCC2(CC1)CN(C(=O)c1cc3ccc(Cl)cc3[nH]1)C2 [Compound C56, 6-chloroindol-2-yl 7-[(4-chlorophenyl)carbonyl]-2,7-diazaspiro[3.5]non-2-yl ketone] | 500 to 5000 |
| O=C(c1ccc(F)cc1)N1CC2(CCN(C(=O)c3cc4cc(Cl)ccc4[nH]3)CC2)C1 [Compound C5, 5-chloroindol-2-yl 2-[(4-fluorophenyl)carbonyl]-2,7-diazaspiro[3.5]non-7-yl ketone] | < 100 |
| O=C(c1cc2cc(Cl)ccc2[nH]1)N1CC2(CCN(Cc3ccc(OC(F)(F)F)cc3)CC2)C1 [Compound C36, 5-chloroindol-2-yl 7-{[4-(trifluoromethoxy)phenyl]methyl}-2,7-diazaspiro[3.5]non-2-yl ketone] | 100 to 500 |
| O=C(c1ccc(-c2nnn[nH]2)cc1)N1CC2(CCN(C(=O)c3cc4cc(Cl)ccc4[nH]3)CC2)C1 [Compound C16, 5-chloroindol-2-yl 2-[(4-(1H-1,2,3,4-tetraazol-5-yl)phenyl)carbonyl]-2,7-diazaspiro[3.5]non-7-yl ketone] | 500 to 5000 |
| N#Cc1ccc(C(=O)N2CCC3(CC2)CN(C(=O)/C=C/c2ccc(Br)cc2)C3)cc1F [Compound C43, 4-({2-[(2E)-3-(4-bromophenyl)prop-2-enoyl]-2,7-diazaspiro[3.5]non-7-yl}carbonyl)-2-fluorobenzenecarbonitrile] | < 100 |
| O=C(C#Cc1ccc(Br)cc1)N1CCC2(CC1)CN(C(=O)c1ccc(Cl)cc1)C2 [Compound C70, 3-(4-bromophenyl)-1-{2-[(4-chlorophenyl)carbonyl]-2,7-diazaspiro[3.5]non-7-yl}prop-2-yn-1-one] | 100 to 500 |
| O=C(/C=C/c1ccc(Br)cc1)N1CCC2(CC1)CN(C(=O)c1ccc(F)cc1)C2 [Compound C53, (2E)-3-(4-bromophenyl)-1-{2-[(4-fluorophenyl)carbonyl]-2,7-diazaspiro[3.5]non-7-yl}prop-2-en-1-one] | < 100 |
| O=C(/C=C/c1ccc(Br)cc1)N1CCC2(CC1)CN(C(=O)c1ccc(F)cc1C(F)(F)F)C2 [Compound C52, (2E)-3-(4-bromophenyl)-1-(2-{[4-fluoro-2-(trifluoromethyl)phenyl]carbonyl}-2,7-diazaspiro[3.5]non-7-yl)prop-2-en-1-one] | < 100 |
| COc1ccc(CN2CC3(CCN(C(=O)C#Cc4ccc(Br)cc4)CC3)C2)cc1 [Compound C75, 3-(4-bromophenyl)-1-{2-[(4-methoxyphenyl)methyl]-2,7-diazaspiro[3.5]non-7-yl}prop-2-yn-1-one] | 100 to 500 |
| O=C(C#Cc1ccc(F)cc1)N1CC2(CCN(C(=O)c3ccc(F)cc3)CC2)C1 [Compound C93, 3-(4-fluorophenyl)-1-{7-[(4-fluorophenyl)carbonyl]-2,7-diazaspiro[3.5]non-2-yl}prop-2-yn-1-one] | 500 to 5000 |
| O=C(/C=C/c1ccc(Br)cc1)N1CC2(CCN(C(=O)c3ccc(Cl)cc3)CC2)C1 [Compound C19, (2E)-3-(4-bromophenyl)-1-{7-[(4-chlorophenyl)carbonyl]-2,7-diazaspiro[3.5]non-2-yl}prop-2-en-1-one] | < 100 |
| COc1ccc(C(=O)N2CCC3(CC2)CN(C(=O)C#Cc2ccc(F)cc2F)C3)cc1 [Compound C97, 3-(2,4-difluorophenyl)-1-{7-[(4-methoxyphenyl)carbonyl]-2,7-diazaspiro[3.5]non-2-yl}prop-2-yn-1-one] | 100 to 500 |
| O=C(/C=C/c1ccc(Br)cc1)N1CCC2(CC1)CN(Cc1ccc(Cl)cc1)C2 [Compound C6, (2E)-3-(4-bromophenyl)-1-{2-[(4-chlorophenyl)methyl]-2,7-diazaspiro[3.5]non-7-yl}prop-2-en-1-one] | < 100 |
| O=C(c1ccc(F)cc1)N1CCC2(CC1)CN(C(=O)c1cc3ccc(Br)cc3[nH]1)C2 [Compound C57, 6-bromoindol-2-yl 7-[(4-fluorophenyl)carbonyl]-2,7-diazaspiro[3.5]non-2-yl ketone] | 500 to 5000 |
